Test results from ChEMBL document CHEMBL1137525, “Additional level of information about complex interaction between non-nucleoside inhibitor and HIV-1 reverse transcriptase using biosensor-based thermodynamic analysis” (Bioorg Med Chem, 2007).

Legend:
[1] = target: T1, Human immunodeficiency virus type 1 reverse transcriptase (Human immunodeficiency virus 1, UniProt Q72547, Y181C); experiment: Binding affinity to HIV1 reverse transcriptase Y181C mutant at 35 degC
[2] = target: T2, Human immunodeficiency virus type 1 reverse transcriptase (Human immunodeficiency virus 1, UniProt Q72547, K103N); experiment: Binding affinity to HIV1 reverse transcriptase K103N mutant at 35 degC
[3] = target: T2, Human immunodeficiency virus type 1 reverse transcriptase; experiment: Binding affinity to HIV1 reverse transcriptase K103N mutant at 15 degC
[4] = target: T1, Human immunodeficiency virus type 1 reverse transcriptase; experiment: Binding affinity to HIV1 reverse transcriptase Y181C mutant at 25 degC
[5] = target: T1, Human immunodeficiency virus type 1 reverse transcriptase; experiment: Binding affinity to HIV1 reverse transcriptase Y181C mutant at 5 degC
[6] = target: T2, Human immunodeficiency virus type 1 reverse transcriptase; experiment: Binding affinity to HIV1 reverse transcriptase K103N mutant at 5 degC
[7] = target: T2, Human immunodeficiency virus type 1 reverse transcriptase; experiment: Binding affinity to HIV1 reverse transcriptase K103N mutant at 25 degC
[8] = target: T1, Human immunodeficiency virus type 1 reverse transcriptase; experiment: Binding affinity to HIV1 reverse transcriptase Y181C mutant at 15 degC

## CCC(=O)c1ccc(F)c([C@@H]2C[C@@H]2NC(=O)Nc2ccc(C#N)cn2)c1O
[1]
  Kd: 2.89 nM
[2]
  Kd: 3.49 nM
[3]
  Kd: 0.997 nM
[4]
  Kd: 1.5 nM
[5]
  Kd: 0.627 nM
[6]
  Kd: 0.596 nM
[7]
  Kd: 4.91 nM
[8]
  Kd: 0.79 nM
